# Measured values from the supplement of paper PMC10307832.
# Tests used:
# Experiment in all cases: relative viability (nuclei count vs DMSO), 5 days (fraction); higher = more cells survive
# Irinotecan + Palbociclib = compound: CCc1c2c(nc3ccc(OC(=O)N4CCC(N5CCCCC5)CC4)cc13)-c1cc3c(c(=O)n1C2)COC(=O)[C@]3(O)CC [Irinotecan] + CC(=O)c1c(C)c2cnc(Nc3ccc(N4CCNCC4)cn3)nc2n(C2CCCC2)c1=O [Palbociclib] (partner 0.5 µM)
# Procedure, shortened: (§1)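 Lung cancer cell lines in 1536-well plates were dosed by pin tool the day after seeding, either with one drug alone or with a fixed anchor-drug dose plus five library-drug doses (not always all listed) in √10 steps. After 5 days, cells were fixed and their nuclei stained in one step (final 0.05% Triton X-100, 1% formaldehyde, 1 ug/ml Hoechst), then counted on 4× images. Relative viability is the nuclei count in treated wells divided by that in vehicle wells. Values are medians of duplicate plates.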
# RU-SKI 43 + Dasatinib = compound: CC[C@@H](C)CNCC(=O)N1CCC2=C([C@@H]1COC3=CC=CC(=C3)C)C=CS2 [RU-SKI 43] + Cc1nc(Nc2ncc(C(=O)Nc3c(C)cccc3Cl)s2)cc(N2CCN(CCO)CC2)n1 [Dasatinib] (partner 0.075 µM)
# Procedure, shortened: as §1
# Irinotecan + Pemetrexed = compound: CCc1c2c(nc3ccc(OC(=O)N4CCC(N5CCCCC5)CC4)cc13)-c1cc3c(c(=O)n1C2)COC(=O)[C@]3(O)CC [Irinotecan] + Nc1nc2[nH]cc(CCc3ccc(C(=O)N[C@@H](CCC(=O)O)C(=O)O)cc3)c2c(=O)[nH]1 [Pemetrexed] (partner 0.2 µM)
# Procedure, shortened: as §1
# Irinotecan + Navitoclax = compound: CCc1c2c(nc3ccc(OC(=O)N4CCC(N5CCCCC5)CC4)cc13)-c1cc3c(c(=O)n1C2)COC(=O)[C@]3(O)CC [Irinotecan] + CC1(C)CCC(c2ccc(Cl)cc2)=C(CN2CCN(c3ccc(C(=O)NS(=O)(=O)c4ccc(N[C@H](CCN5CCOCC5)CSc5ccccc5)c(S(=O)(=O)C(F)(F)F)c4)cc3)CC2)C1 [Navitoclax] (partner 0.5 µM)
# Procedure, shortened: as §1
Cell Line,relative viability (Irinotecan + Palbociclib; first compound 0.6325 µM),relative viability (Irinotecan + Palbociclib; first compound 2 µM),relative viability (Irinotecan + Palbociclib; first compound 6.325 µM),relative viability (Irinotecan + Palbociclib; first compound 20 µM),relative viability (RU-SKI 43 + Dasatinib; first compound 0.1 µM),relative viability (RU-SKI 43 + Dasatinib; first compound 0.3162 µM),relative viability (RU-SKI 43 + Dasatinib; first compound 1 µM),relative viability (RU-SKI 43 + Dasatinib; first compound 3.162 µM),relative viability (RU-SKI 43 + Dasatinib; first compound 10 µM),relative viability (Irinotecan + Pemetrexed; first compound 0.6325 µM),relative viability (Irinotecan + Pemetrexed; first compound 2 µM),relative viability (Irinotecan + Pemetrexed; first compound 6.325 µM),relative viability (Irinotecan + Pemetrexed; first compound 20 µM),relative viability (Irinotecan + Navitoclax; first compound 0.6325 µM),relative viability (Irinotecan + Navitoclax; first compound 2 µM),relative viability (Irinotecan + Navitoclax; first compound 6.325 µM),relative viability (Irinotecan + Navitoclax; first compound 20 µM)
NCI-H460,0.0549,0.128,0.0851,0.0574,0.505,0.592,0.652,0.573,0.51,0.0679,0.093,0.0699,0.0601,0.779,0.165,0.0691,0.053
NCI-H520,0.224,0.242,0.214,0.146,0.188,0.233,0.297,0.272,0.191,0.509,0.277,0.273,0.167,0.851,0.634,0.288,0.227
NCI-H647,0.311,0.31,0.136,0.0705,0.155,0.226,0.223,0.192,0.135,0.165,0.154,0.153,0.105,1.03,0.39,0.194,0.177
NCI-H838,0.261,0.25,0.207,0.171,0.296,0.213,0.303,0.247,0.327,0.232,0.25,0.24,0.25,1.14,0.754,0.4,0.266
NCI-H1355,–,0.393,0.215,0.206,0.674,0.868,0.781,0.761,0.739,–,0.968,0.656,0.319,0.812,0.28,0.195,0.237
NCI-H1395,–,0.572,0.476,0.284,0.4,0.375,0.437,0.37,0.456,–,0.754,0.518,0.246,–,0.677,0.521,0.344
NCI-H1437,0.319,0.337,0.301,0.258,0.541,0.452,0.472,0.452,0.377,0.319,0.315,0.312,0.265,0.75,0.575,0.308,0.214
NCI-H1650,0.184,0.305,0.285,0.101,0.356,0.362,0.373,0.36,0.279,0.365,0.373,0.282,0.111,1.07,0.808,0.394,0.316
NCI-H1651,0.529,0.491,0.305,0.162,0.439,0.393,0.412,0.332,0.491,0.25,0.638,0.356,0.147,0.763,0.544,0.199,0.168
NCI-H1666,0.59,0.559,0.577,0.438,0.772,0.922,0.799,0.763,0.699,0.762,0.766,0.676,0.63,0.695,0.643,0.401,0.326
NCI-H1734,–,0.256,0.193,0.373,0.384,0.451,0.478,0.444,0.343,–,0.385,0.222,0.141,0.618,0.376,0.156,0.188
NCI-H1755,0.405,0.446,0.438,0.486,0.417,0.474,0.469,0.521,0.379,0.383,0.45,0.39,0.448,0.886,0.283,0.221,0.287
NCI-H1792,0.63,0.555,0.435,0.254,0.772,1.03,0.739,0.892,0.845,0.507,0.823,0.188,0.282,0.598,0.72,0.162,0.095
NCI-H1793,–,0.222,0.203,0.265,0.388,0.381,0.357,0.385,0.316,–,0.699,0.395,0.253,–,0.447,0.347,0.664
NCI-H1915,0.224,0.182,0.137,0.121,0.337,0.331,0.357,0.306,0.318,0.352,0.349,0.187,0.132,0.318,0.18,0.151,0.115
NCI-H1944,0.227,0.173,0.179,0.17,0.209,0.223,0.213,0.211,0.2,0.553,0.516,0.284,0.175,0.653,0.26,0.195,0.205
NCI-H1975,0.304,0.557,0.314,0.219,0.357,0.461,0.441,0.356,0.401,0.268,0.311,0.252,0.173,1.06,1.11,0.411,0.167

Cell Line,relative viability (Irinotecan + Palbociclib; first compound 0.6325 µM),relative viability (Irinotecan + Palbociclib; first compound 2 µM),relative viability (Irinotecan + Palbociclib; first compound 6.325 µM),relative viability (Irinotecan + Palbociclib; first compound 20 µM),relative viability (RU-SKI 43 + Dasatinib; first compound 0.1 µM),relative viability (RU-SKI 43 + Dasatinib; first compound 0.3162 µM),relative viability (RU-SKI 43 + Dasatinib; first compound 1 µM),relative viability (RU-SKI 43 + Dasatinib; first compound 3.162 µM),relative viability (RU-SKI 43 + Dasatinib; first compound 10 µM),relative viability (Irinotecan + Pemetrexed; first compound 0.6325 µM),relative viability (Irinotecan + Pemetrexed; first compound 2 µM),relative viability (Irinotecan + Pemetrexed; first compound 6.325 µM),relative viability (Irinotecan + Pemetrexed; first compound 20 µM),relative viability (Irinotecan + Navitoclax; first compound 0.6325 µM),relative viability (Irinotecan + Navitoclax; first compound 2 µM),relative viability (Irinotecan + Navitoclax; first compound 6.325 µM),relative viability (Irinotecan + Navitoclax; first compound 20 µM)
NCI-H1993,–,0.513,0.521,1.01,0.608,0.516,0.653,0.778,0.533,–,0.637,0.545,0.506,0.97,0.834,0.588,0.812
NCI-H2009,0.197,0.317,0.147,0.0702,0.314,0.296,0.324,0.289,0.276,0.783,0.439,0.211,0.121,0.802,0.58,0.19,0.148
NCI-H2023,0.503,0.385,0.248,0.077,0.581,0.835,0.649,0.599,0.61,0.256,0.2,0.156,0.0599,1,0.812,0.277,0.103
NCI-H2085,0.461,0.344,0.382,0.358,0.24,0.247,0.275,0.234,0.262,0.661,0.915,0.826,0.468,1.03,0.862,0.493,0.507
NCI-H2087,0.192,0.219,0.174,0.204,0.998,1.48,0.866,0.938,0.943,0.489,0.197,0.172,0.195,0.468,0.26,0.184,0.218
NCI-H2126,0.342,0.242,0.323,0.381,0.65,0.652,0.681,0.67,0.586,0.414,0.606,0.456,0.383,–,0.421,0.319,0.308
NCI-H2170,0.356,0.248,0.159,0.143,0.695,0.634,0.616,0.716,0.467,0.277,0.245,0.238,0.151,0.52,0.348,0.308,0.192
NCI-H2228,0.453,0.664,0.393,0.456,0.74,0.658,0.486,0.555,0.425,0.363,0.36,0.336,0.442,0.875,0.529,0.405,0.51
NCI-H2347,0.397,0.459,0.456,0.465,0.34,0.23,0.364,0.203,0.293,0.429,0.427,0.342,0.427,0.648,0.477,0.348,0.277
NCI-H2405,–,0.547,0.305,0.143,0.213,0.198,0.218,0.209,0.194,–,1.12,0.315,0.256,–,0.697,0.212,0.091
NCI-H3122,0.155,0.114,0.16,0.126,0.959,0.913,0.806,0.778,0.838,0.205,0.202,0.139,0.14,0.723,0.235,0.226,0.209
PC-3 [JPC-3],0.566,0.557,0.529,0.338,1.07,1.09,0.973,0.968,0.939,0.512,1.25,0.522,0.463,0.703,0.436,0.307,0.333
PC-14,0.378,0.34,0.183,0.148,0.242,0.25,0.283,0.241,0.183,0.155,0.175,0.136,0.111,0.987,0.876,0.196,0.147
RERF-LC-KJ,1.02,0.819,0.405,0.265,0.788,0.938,0.992,0.771,0.704,0.321,0.435,0.44,0.211,0.936,1.18,0.52,0.504
SK-LU-1,0.35,0.354,0.299,0.336,0.163,0.172,0.172,0.194,0.159,0.521,0.455,0.334,0.276,0.225,0.334,0.296,0.263
SK-MES-1,0.354,0.342,0.291,0.175,0.336,0.358,0.357,0.342,0.388,0.839,0.808,0.312,0.142,1.29,1.22,0.226,0.208
SW 1573,–,0.329,0.181,0.101,0.558,0.816,0.497,0.491,0.311,–,0.553,0.176,0.0829,0.694,0.601,0.139,0.156
